“Also recorded” adds a separate entry of the source.

This assay concerns C. albicans isolate 3666. Put plainly: Murine model, kidney fungal burden. In kind it is in vivo, BALB/c mice. The following applies: immunosuppressed mice, 10^4 cfu/mouse iv. As for the experimental part:
During an independent in vivo experiment mice were infected intravenously with C. albicans isolate 3666. The infected mice were euthanized 2 or 6 days after infection (n=5 and 6 mice/time point, respectively), as disclosed herein, to determine the fungal burdens in the kidneys. Kidney burden was analyzed using a Kruskal-Wallis test with Dunn's posttest for multiple comparisons [Foldi R 2012, Kovacs R 2014]. Results of fungal burden experiments are shown on FIGS. 3b and c. […] It is well seen in […], that on day 6. the fungal burden increased by an order of magnitude (from −10^5 to −10^6) in the case of the untreated mice, while in the case of DIMICAN it remained the same as it was on day 2. The same is valid for AMB.
We used 10-12 week-old female BALB/c mice for all experiments. Mice were immunosuppressed using 150 mg/kg intraperitoneal (ip) cyclophosphamide dose (4 days prior to infection) and 100 mg/kg ip cyclophosphamide dose (1 day prior to infection; 2 and 5 days after infection) [Spellberg B, 2005]. All mice received ceftazidime (5 mg/day subcutaneously) from days 0 to 6 after infection. Mice were given food and water ad libitum and were monitored daily. The animals were maintained in accordance with the Guidelines for the Care and Use of Laboratory Animals, and the experiments were approved by the Animal Care Committee of the University of Debrecen, Debrecen, Hungary (permission no. 12/2014).
Mice were infected via the lateral tail vein with C. albicans 3666 bloodstream isolate. In the lethality (10 mice/group) and fungal tissue burden experiments (6 mice/group) the infectious doses were 3×10^4 and 10^4 cfu/mouse, respectively. These doses led to 100% and 0% mortality, respectively by day 6 after infection among untreated mice. Inoculum density was confirmed by plating serial dilutions onto Sabouraud dextrose agar (SDA) plates.
AMB (Fungizone, commercial preparation) and DIMICAN treatment in a 0.5-ml bolus was started 1 h after infection. The doses were 1 mg AMB and 5 mg DIMICAN (in olive oil/water (o/w) emulsion) per kg body weight. All antifungals were administered intraperitoneally once daily for 5 consecutive days.
Infected mice were euthanized 2 or 6 days after infection (n=6 mice/time point) to determine the fungal burden in the kidney. […] Aliquots of 0.1 ml of the undiluted and diluted homogenates were plated onto SDA, and the colony count was determined after 48 h. Colony-forming units (CFUs) were determined after 48 h of incubation at 37° C. and results were expressed as cfus/g tissue [Spellberg B, 2005]. […]
Survival effects were analyzed by the Kaplan—Meier log-rank test. Kidney burden was analysed using a Kruskal—Wallis test with Dunn's posttest for multiple comparisons [Foldi R 2012, Kovacs R 2014].

Regarding `[C-]#[N+]c1cccc2c(N(C)C)cccc12` [DIMICAN, N,N-dimethyl-1-amino-5-isocyanonaphthalene], where the note is “5 mg/kg DIMICAN or 1 mg/kg AMB ip once daily for 5 days, p<0.05 (AMB), p<0.001 (DIMICAN) vs control”, the “effect on kidney fungal burden, six days after infection” value was “efficient; also recorded: significantly lower fungal burden”. For the same compound, the “effect on kidney fungal burden, two days after infection” value (5 mg/kg DIMICAN or 1 mg/kg AMB ip once daily, P>0.05 vs control) is given as “no effect on fungal load”.

For the origin of these results see patent publication US20230048678A1, “ICAN DERIVATIVES FOR ANTIFUNGAL USE” (DEBRECENI EGYETEM, priority 2019, published 2023).
